From patent publication US20250354125A1, “HIGH-[…]-TERM CULTURED E[…] WITH ANGIOGENESIS” (priority 2024, published 2025)
Ends that are not written are not given here.

How the values were obtained:
[1] = tested on: HUVEC Endothelial organoids; test: Organoid stimulation with IL-1β and TGF-β and treatment with PIEZO1 or ROCK inhibitor; EndMT and endothelial marker expression; format: cell-based, human; details: FIG. 14a/14b; for TAGLN expression / fibronectin expression: EndMT marker
Procedure: (§1) HUVEC Endothelial organoids were seeded in 384-well U-bottom ULA plates (S-bio #MS-9384UZ, lot 20839306) and centrifuged at 1,000 rpm for 5 min (142 rcf, Thermo Scientific Sorvall ST16 centrifuge). Endothelial organoid seeding volume was 25 μL per well. The HUVEC organoid seeding solution consisted of 120,000 HUVEC cells/mL, 160 μg/mL Matrigel (Corning #356-231, 10.7 mg/mL), 10% FBS (GeminiBio #900-108) and 0.24% methylcellulose (Methocel, Sigma Aldrich #94378). A key procedure being to add cold Matrigel into warm media to induce gelling.

[2] = tested on: HUVEC Endothelial organoids; test: LPS and TNF-α stimulated endothelial organoid; E-selectin immunofluorescence and bright field imaging; format: cell-based, human
Procedure: as §1
Fixed HUVEC Organoids were washed with PBS and permeabilized with 0.1% Tween in PBS for 10 min at 4° C. Samples were incubated with Organoid washing buffer (OWB, 0.2% BSA/0.1% Triton-X-100 in PBS) to prevent non-specific binding for 15 min at 4° C. Samples were incubated with primary antibodies in OWB at 4° C. overnight. Primary antibodies include: SELE Rabbit pAb (ABclonal, #A2191, Lot 5500024697, 1:1,000 dilution), Human VE-Cadherin Antibody (R&D systems, #AF938, 1:40 dilution) and Mouse anti-CD34 antibody (Clone QBEND/10, Invitrogen #MA1-10202, 1:500 dilution). Samples were washed with OWB and incubated with secondary antibodies or Alexa Fluor 647 Phalloidin (Invitrogen, #A22287, Lot 2170291, 1:400 dilution) in OWB for 2 hours at room temperature (RT). Secondary antibodies include: Goat anti-Rabbit Alexa Fluor 647 (Invitrogen, #A-21244, Lot 2134003, 1:500 dilution), Donkey anti-rat Alexa Fluor 488 (1:2,000 dilution), Goat anti-mouse Alexa Fluor 488 (Thermo Fisher, #A-11001, 1:2,000 dilution) and Donkey anti-mouse Alexa Fluor 568 (Invitrogen #A10037, 1:1,000 dilution). Organoids were washed with PBS and incubated with DAPI in PBS for 30 min at RT and imaged using Spinning disk Confocal microscope (Nikon, CSU-W1) with 10×, 20× and 60× magnification. E-selectin, Integrin α6 and CD34 stained organoids were performed without permeabilization step, VE-Cadherin and Phalloidin stained organoids were performed with permeabilization step
There is currently a lot of research being conducted on endothelial cells in relation to inflammation. […]

C[C@@H](N)[C@H]1CC[C@H](C(=O)Nc2ccncc2)CC1 [Y-27632] was tested, and the TAGLN expression [1] was “TAGLN expression remained unchanged”, the fibronectin expression [1] was “elevated fibronectin levels” and the PECAM1 expression [1] was “increased PECAM1 expression”.
In the case of “GsMTx4: PIEZO1 inhibitor (GCLEFWWKCNPNDDKCCRPKLKCSKLFKLCNFSF; ends and bridges not checked; cysteine pairing not given here; UniProt Q7YT39 47-80, looked up)”, the TAGLN expression [1] is reported as “did not alter TAGLN” and the fibronectin expression [1] is reported as “decreased fibronectin expression”.
With “IL-1β: cytokine used for organoid stimulation; its effect indicated an inflammatory response” the TAGLN expression [1] was “without affecting fibronectin or TAGLN levels”, the fibronectin expression [1] was “without affecting fibronectin” and the PECAM1 expression [1] was “reduced PECAM1 expression”.
TNF-α was tested, and the “changes in the bright field (BF)” value ([2]; after 24 hours of treatment) was “no significant changes were observed”, the “E-selectin signal on the surface of the organoids” value ([2]; fluorescent staining after 24 hours of treatment, compared to the control group, FIG. 11) was “showed expression of the E-selectin signal” and the “E-selectin fluorescence in relation to concentration” value ([2]; fluorescent staining, FIG. 11) was “increase in fluorescence proportional to their concentrations”.
